Measurements: patent US20150018301A1, “LRRK-2-Mediated Neuronal Toxicity” (THE JOHNS HOPKINS UNIVERSITY, priority 2009, published 2015)

Columns and labels:
LRRK2 WT [1] = biological target: T1, LRRK2 WT (Homo sapiens, UniProt Q5S007); test: In vitro kinase assay: LRRK2-mediated MBP phosphorylation; format: biochemical; conditions: compound 16 μM; 30° C., 15 min; normalized to absence of compound; mean ± S.E.M. of three experiments
LRRK2 WT [2] = biological target: T1, LRRK2 WT; test: In vitro kinase assay: LRRK2 autophosphorylation; format: biochemical; conditions: compound 16 μM; phosphorylation normalized to absence of compound; mean ± S.E.M. of three experiments

T1 sequence (Q5S007 whole entry): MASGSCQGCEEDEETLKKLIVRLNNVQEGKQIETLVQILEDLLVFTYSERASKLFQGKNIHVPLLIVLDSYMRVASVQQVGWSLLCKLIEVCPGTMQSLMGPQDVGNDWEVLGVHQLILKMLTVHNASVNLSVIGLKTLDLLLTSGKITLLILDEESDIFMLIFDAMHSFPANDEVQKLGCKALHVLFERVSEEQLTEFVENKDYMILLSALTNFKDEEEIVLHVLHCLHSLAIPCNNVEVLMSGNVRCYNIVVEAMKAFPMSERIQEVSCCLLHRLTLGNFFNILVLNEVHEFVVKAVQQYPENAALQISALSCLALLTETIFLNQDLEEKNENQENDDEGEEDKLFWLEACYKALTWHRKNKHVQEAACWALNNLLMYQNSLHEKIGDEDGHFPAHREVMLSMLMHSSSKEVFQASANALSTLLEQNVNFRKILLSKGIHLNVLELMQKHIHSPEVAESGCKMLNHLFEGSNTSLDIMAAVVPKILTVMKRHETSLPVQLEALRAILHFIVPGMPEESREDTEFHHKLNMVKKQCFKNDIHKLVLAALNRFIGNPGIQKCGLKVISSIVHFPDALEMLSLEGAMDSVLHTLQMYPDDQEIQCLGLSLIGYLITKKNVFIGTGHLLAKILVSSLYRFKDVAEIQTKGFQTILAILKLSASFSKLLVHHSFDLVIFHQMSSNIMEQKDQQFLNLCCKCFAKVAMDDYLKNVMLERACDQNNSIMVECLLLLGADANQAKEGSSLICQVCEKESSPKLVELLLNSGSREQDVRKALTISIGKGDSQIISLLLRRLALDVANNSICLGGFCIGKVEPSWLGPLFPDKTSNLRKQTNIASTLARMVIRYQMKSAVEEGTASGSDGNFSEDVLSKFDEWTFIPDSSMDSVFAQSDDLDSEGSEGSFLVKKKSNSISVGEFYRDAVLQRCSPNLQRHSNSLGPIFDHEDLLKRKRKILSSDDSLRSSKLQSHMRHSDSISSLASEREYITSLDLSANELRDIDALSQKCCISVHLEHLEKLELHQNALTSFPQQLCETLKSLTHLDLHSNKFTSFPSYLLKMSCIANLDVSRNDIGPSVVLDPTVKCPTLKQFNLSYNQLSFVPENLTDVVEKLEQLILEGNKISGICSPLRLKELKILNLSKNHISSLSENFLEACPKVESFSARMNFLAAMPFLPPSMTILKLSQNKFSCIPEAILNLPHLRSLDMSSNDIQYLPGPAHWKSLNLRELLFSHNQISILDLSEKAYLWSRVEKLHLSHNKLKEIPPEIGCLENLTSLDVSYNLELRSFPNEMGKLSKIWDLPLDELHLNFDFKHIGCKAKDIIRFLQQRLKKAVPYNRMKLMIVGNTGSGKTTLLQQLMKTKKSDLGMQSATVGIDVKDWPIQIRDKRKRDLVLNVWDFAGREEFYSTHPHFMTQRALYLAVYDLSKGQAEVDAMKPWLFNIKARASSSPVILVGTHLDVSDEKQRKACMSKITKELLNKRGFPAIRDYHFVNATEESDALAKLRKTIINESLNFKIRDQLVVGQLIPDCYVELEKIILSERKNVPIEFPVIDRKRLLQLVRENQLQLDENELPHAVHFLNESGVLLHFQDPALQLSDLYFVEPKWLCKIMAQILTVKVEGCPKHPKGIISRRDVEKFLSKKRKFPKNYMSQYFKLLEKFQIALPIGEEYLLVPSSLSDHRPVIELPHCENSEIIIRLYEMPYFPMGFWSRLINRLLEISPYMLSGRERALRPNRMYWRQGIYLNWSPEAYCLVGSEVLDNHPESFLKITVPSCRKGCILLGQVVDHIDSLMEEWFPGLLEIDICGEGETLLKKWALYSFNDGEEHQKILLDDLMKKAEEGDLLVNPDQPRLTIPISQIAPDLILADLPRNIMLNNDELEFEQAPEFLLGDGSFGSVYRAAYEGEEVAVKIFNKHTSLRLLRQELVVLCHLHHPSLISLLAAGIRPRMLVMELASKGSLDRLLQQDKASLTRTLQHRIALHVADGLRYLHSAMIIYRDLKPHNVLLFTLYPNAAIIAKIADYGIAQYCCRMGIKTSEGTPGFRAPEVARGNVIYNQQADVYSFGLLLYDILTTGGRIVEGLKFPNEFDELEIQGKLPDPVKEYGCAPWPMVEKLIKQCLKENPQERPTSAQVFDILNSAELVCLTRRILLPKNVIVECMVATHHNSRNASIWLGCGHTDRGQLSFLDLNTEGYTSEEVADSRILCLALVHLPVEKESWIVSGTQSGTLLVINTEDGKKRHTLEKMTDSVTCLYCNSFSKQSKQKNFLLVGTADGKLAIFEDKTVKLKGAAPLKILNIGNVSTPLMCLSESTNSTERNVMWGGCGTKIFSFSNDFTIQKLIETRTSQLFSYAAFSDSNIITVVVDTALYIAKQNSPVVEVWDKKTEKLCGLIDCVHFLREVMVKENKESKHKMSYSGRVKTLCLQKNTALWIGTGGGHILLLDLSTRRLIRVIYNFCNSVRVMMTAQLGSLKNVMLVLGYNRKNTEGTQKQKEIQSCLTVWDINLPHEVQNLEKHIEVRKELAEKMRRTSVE

SMILES	MBP phosphorylation Average ± SEM (LRRK2 WT [1])	LRRK2 autophosphorylation Average ± SEM (LRRK2 WT [2])
N#C/C(=C\c1ccc(O)c(O)c1)C(N)=O [Inhibitor 13]	117.3 ± 18.5 % of control	81.0 ± 13.4 % of control
CN(C)c1ccc(/C=C2\C(=O)Nc3ccccc32)cc1 [Inhibitor 54]	112.8 ± 34.9 % of control	37.5 ± 13.9 % of control
Brc1ccc([C@H]2CN3CCSC3=N2)cc1 [Inhibitor 75]	83.2 ± 50.5 % of control	75.9 ± 3.9 % of control
OC[C@@H]1O[C@H](n2cnc3cc(Cl)c(Cl)cc32)[C@@H](O)[C@H]1O [Inhibitor 66]	120.8 ± 78.0 % of control	56.4 ± 12.9 % of control
N#CC(C#N)=C(N)/C(C#N)=C/c1ccc2[nH]ccc2c1 [Inhibitor 27]	79.5 ± 17.8 % of control	73.2 ± 8.8 % of control
C[S+]([O-])c1ccc(-c2nc(-c3ccc(F)cc3)c(-c3ccncc3)[nH]2)cc1 (stereo not shown) [Inhibitor 3]	105.9 ± 15.9 % of control	75.1 ± 7.8 % of control
COc1cccc(-c2cc(=O)c3ccccc3o2)c1N [Inhibitor 1]	77.5 ± 55.0 % of control	77.9 ± 30.6 % of control
COCc1cc(O)c(O)c(O)c1-c1c(COC)cc(O)c(O)c1O [Inhibitor 67]	123.2 ± 33.8 % of control	79.2 ± 24.2 % of control
Cc1ccc(-c2nn(C(C)(C)C)c3ncnc(N)c23)cc1 [Inhibitor 24]	103.6 ± 60.1 % of control	88.3 ± 17.1 % of control
CC(C)(C)n1nc(-c2ccc(Cl)cc2)c2c(N)ncnc21 [Inhibitor 52]	98.1 ± 44.2 % of control	45.7 ± 22.1 % of control

Now from value to compound:

MBP phosphorylation Average ± SEM (LRRK2 WT [1])	LRRK2 autophosphorylation Average ± SEM (LRRK2 WT [2])	SMILES
82.9 ± 17.7 % of control	78.5 ± 5.8 % of control	N#C/C(=C\c1ccc(O)c(O)c1)C(=O)NCc1ccccc1 [Inhibitor 25]
104.3 ± 14.6 % of control	89.4 ± 12.5 % of control	Cc1cc2ncc(-c3ccccc3)nc2cc1C [Inhibitor 19]
120.2 ± 39.6 % of control	71.6 ± 2.1 % of control	O=S(=O)(c1cccc2c(Cl)cccc12)N1CCCNCC1 [Inhibitor 43]
125.3 ± 45.6 % of control	72.5 ± 2.1 % of control	Cn1cnc2c(NCc3ccccc3)nc(NCCO)nc21 [Inhibitor 46]
164.7 ± 40.0 % of control	104.6 ± 26.6 % of control	COc1ccc(S(=O)(=O)N(CCO)c2ccccc2CN(C)C/C=C/c2ccc(Cl)cc2)cc1 [Inhibitor 41]
75.6 ± 56.9 % of control	56.1 ± 27.6 % of control	N#C/C(=C\c1ccc(O)c(O)c1)C(=O)Nc1ccccc1 [Inhibitor 7]
45.2 ± 46.1 % of control	90.8 ± 30.7 % of control	N#C/C(=C/c1cc(Cl)cc(Cl)c1)c1cccnc1 [Inhibitor 10]
101.3 ± 25.3 % of control	68.5 ± 1.5 % of control	CC(C)c1cc(/C=C(\C#N)C(=O)NCCCc2ccccc2)cc(C(C)C)c1O [Inhibitor 63]
89.4 ± 71.9 % of control	87.3 ± 14.8 % of control	Cl.O=S(=O)(c1cccc2c(I)cccc12)N1CCCNCC1 [Inhibitor 42]
105.1 ± 19.1 % of control	79 ± 49.6 % of control	N#CC(C#N)=C(N)/C(C#N)=C/c1cc(O)c(O)c(O)c1 [Inhibitor 15]
